Patent publication US12054449B2, “Phenylcarbamate crystalline form and method for manufacturing the same” (BIO-PHARM SOLUTIONS CO., LTD., priority 2021, dated 2024)

Experiments:
[1] = Competitive slurry experiment for Pattern 1 and Pattern 3; assay type: physicochemical; details: 4 days
Description: To investigate the relative thermodynamic stability of various crystalline form patterns at room temperature and 50° C., competitive slurry experiments were carried out.
A mixture of Pattern 1 and Pattern 3 (ED01748-028-003-00, 4×20 mg) was dispensed into vials. They were treated with 250 μL of a saturated solution of Pattern 1 (ED01748-006-001-00) in DIPE or heptane (50 mg of ED01748-006-001-00 was treated with DIPE or heptane and heated at 50° C., a portion was removed as needed, and the resulting product was filtered through a 0.45 μm syringe filter, thereby forming a slurry). The produced slurry was stirred at room temperature or 50° C. After analysis, the solid was returned to the vial, and an additional saturated solution was added as needed to maintain the slurry. After 4 days, the purity of the material was confirmed by UPLC.

[2] = Change of crystalline form on standing or drying (XRPD); assay type: physicochemical
Description: XRPD patterns were detected by CuKα irradiation (30 kV, 10 mA) using a Bruker AXS D2 diffractometer. The analysis was performed using θ-θ geometry and a LynxEye detector at 5 to 42° 2θ with a step size of 0.024° 2θ at 0.1 sec/step.
Samples were run at ambient conditions and prepared as flat specimens using powder received without grinding. About 1 to 2 mg of the sample was lightly pressed on a silicon wafer to obtain a flat surface.

In the case of `C[C@H](OC(N)=O)[C@@H](O)c1ccccc1Cl` [ED01748-028-003-00, 1-(2-chlorophenyl)-(S)-1-hydroxypropyl-(S)-2-carbamate], the “UPLC purity of slurry material after 4 days” value ([1]; DIPE samples, RT and 50° C.) is reported as 98% and the “UPLC purity of slurry material after 4 days” value ([1]; heptane sample) is reported as 98.5%.
In the case of `C[C@H](OC(N)=O)[C@@H](O)c1ccccc1Cl` [Pattern 4, 1-(2-chlorophenyl)-(S)-1-hydroxypropyl-(S)-2-carbamate], the “Change in form by XRPD on drying” value ([2]; brief drying whilst standing in the open vial) is reported as “change in form by XRPD from Pattern 4 to a mixture of Pattern 1 and Pattern 3”.
In the case of `C[C@H](OC(N)=O)[C@@H](O)c1ccccc1Cl` [Pattern 6, 1-(2-chlorophenyl)-(S)-1-hydroxypropyl-(S)-2-carbamate], the “Form conversion by XRPD” value ([2]; Pattern 6 material from anisole, stood overnight) is reported as “converted to a mixture of Pattern 6 and Pattern 1” and the “Form conversion by XRPD” value ([2]; Pattern 6 material from toluene) is reported as “converted to a mixture of Pattern 6 and Pattern 3”.
In the case of `C[C@H](OC(N)=O)[C@@H](O)c1ccccc1Cl` [Pattern 7, 1-(2-chlorophenyl)-(S)-1-hydroxypropyl-(S)-2-carbamate], the Behaviour on standing [2] is reported as “variable behaviour on standing”.
With `C[C@H](OC(N)=O)[C@@H](O)c1ccccc1Cl` [Pattern 8, 1-(2-chlorophenyl)-(S)-1-hydroxypropyl-(S)-2-carbamate] the Change on standing ([2]; Pattern 8 from chloroform and heptane) was “observed to change on standing”, the “change on standing o/n” value ([2]; solid from Exp. 10, chloroform/Heptane) was “No change” and the “change on standing o/n” value ([2]; solid from Exp. 14, DCM/Heptane) was “Small”.
For `C[C@H](OC(N)=O)[C@@H](O)c1ccccc1Cl` [Pattern 9, 1-(2-chlorophenyl)-(S)-1-hydroxypropyl-(S)-2-carbamate], the “change on standing o/n” value ([2]; solid from Exp. 9, chloroform/Toluene) was “No change” and the “change on standing o/n” value ([2]; solid from Exp. 13, DCM/Toluene) was “No change”.
